Tests used:
[1] = system: NCI-H1581 xenograft model; test: NCI-H1581 NSCLC xenograft tumor growth inhibition; type: in vivo, mouse; conditions: Lung NCI-H1581, IP 15 mg/kg BIW, FGFR1 amplified, P = 0.002
Protocol: FGFR1-ECD.339-Fc was formulated in PBS at 3 mg/ml and administered intraperitoneally (i.p.) at 15 mg/kg (300 μg/100 μl/mouse) twice a week for four weeks. Human albumin was purchased from Grifols USA (Los Angeles, Calif.; Cat. No. NDC 61953-0002-1), diluted to a working stock (3 mg/ml) with 0.9% sodium chloride, and was used as negative control at 300 μg/100 μl/mouse (15 mg/kg) administered twice a week for four weeks.
Six week old female SCID mice were purchased from Charles River Laboratories (Wilmington, Mass.) and were acclimated for 1 week before the start of the study. Human non-small cell lung cancer (NSCLC) cell line NCI-H1581 was used as the tumor model and was purchased from ATCC (Manassas, Va.; Cat. No. CRL-5878). The cells were cultured for three passages in ACL-4 medium (serum-free). […]
Tumor sizes were measured in each mouse on days 7, 10, 14, 17, 21, 25 and 31 following the day of tumor cell inoculation. The length and width of each tumor was measured using calipers and the tumor size calculated according to the formula: Tumor size (mm^3)=[…] Mice were euthanized as a “cancer death” when the subcutaneous tumor volumes exceeded 2000 mm^3 or when the tumors became excessively necrotic.

MFE-280 xenograft model = test: MFE-280 xenograft tumor growth inhibition; type: in vivo, mouse; conditions: Endometrial MFE-280; IP 15 mg/kg BIW; non-amplified; P < 0.001
Protocol: Percentage tumor growth inhibition by FGFR1-ECD.339-Fc was determined by area-under-the-curve (AUC) analysis of xenograft growth curves treated with FGFR1-ECD.339-Fc compared to albumin control. […] The difference in FGFR1-ECD.339-Fc-mediated xenograft inhibition between FGFR1 gene amplified and non-amplified lung cancer xenograft models was statistically significant (P=0.0333).
Also shown in Table 5 are the dosing schedule for FGFR1-ECD.339-Fc in a mouse xenograft model, the percent tumor growth inhibition (TGI (%)) and the statistical significance of the tumor growth inhibition (P Value), as well as whether the FGFR1 gene is amplified in the cell line.
An exemplary xenograft experiment is as follows. For Caki-1 and MSTO-211H, five million cells were implanted subcutaneously over the right flank of SCID mice (N=10 per group). […] Representative tumor growth curves are shown for a renal cancer, Caki-1, (A), and mesothelioma, MSTO-211H, (B) xenograft cancer model. […] In the MSTO-211H mesothelioma model, FGFR1-ECD.339-Fc administration reduced tumor growth (FIG. 16b) by 64% (P<0.0001).

FGFR1-ECD.339-Fc: human FGFR1 extracellular domain ending at amino acid 339 fused to an Fc; SEQ ID NO: 6 (mature form), SEQ ID NO: 5 with signal peptide
TGI (%) [1]: 74%
TGI (%) (MFE-280 xenograft model): 96%
